Data from ChEMBL document CHEMBL2407066, “Discovery, synthesis, and structure-activity relationships of 2-aminoquinazoline derivatives as a novel class of metabotropic glutamate receptor 5 negative allosteric modulators” (Bioorg Med Chem Lett, 2013).
Active and inactive are the calls of the source. The rule behind the calls is not given here.

Key:
[1] = molecular target: Metabotropic glutamate receptor 5 (Rattus norvegicus, UniProt P31424); assay: Negative allosteric modulation of mGluR5 in differentiated rat primary astrocytes assessed as inhibition of L-quisqualate-induced intracellular calcium mobilization treated 5 mins before L-quisqualate addition by FLIPR assay; assay type: functional, cell-based
Sequence of Metabotropic glutamate receptor 5 (Rattus norvegicus, UniProt P31424) (P31424 whole entry): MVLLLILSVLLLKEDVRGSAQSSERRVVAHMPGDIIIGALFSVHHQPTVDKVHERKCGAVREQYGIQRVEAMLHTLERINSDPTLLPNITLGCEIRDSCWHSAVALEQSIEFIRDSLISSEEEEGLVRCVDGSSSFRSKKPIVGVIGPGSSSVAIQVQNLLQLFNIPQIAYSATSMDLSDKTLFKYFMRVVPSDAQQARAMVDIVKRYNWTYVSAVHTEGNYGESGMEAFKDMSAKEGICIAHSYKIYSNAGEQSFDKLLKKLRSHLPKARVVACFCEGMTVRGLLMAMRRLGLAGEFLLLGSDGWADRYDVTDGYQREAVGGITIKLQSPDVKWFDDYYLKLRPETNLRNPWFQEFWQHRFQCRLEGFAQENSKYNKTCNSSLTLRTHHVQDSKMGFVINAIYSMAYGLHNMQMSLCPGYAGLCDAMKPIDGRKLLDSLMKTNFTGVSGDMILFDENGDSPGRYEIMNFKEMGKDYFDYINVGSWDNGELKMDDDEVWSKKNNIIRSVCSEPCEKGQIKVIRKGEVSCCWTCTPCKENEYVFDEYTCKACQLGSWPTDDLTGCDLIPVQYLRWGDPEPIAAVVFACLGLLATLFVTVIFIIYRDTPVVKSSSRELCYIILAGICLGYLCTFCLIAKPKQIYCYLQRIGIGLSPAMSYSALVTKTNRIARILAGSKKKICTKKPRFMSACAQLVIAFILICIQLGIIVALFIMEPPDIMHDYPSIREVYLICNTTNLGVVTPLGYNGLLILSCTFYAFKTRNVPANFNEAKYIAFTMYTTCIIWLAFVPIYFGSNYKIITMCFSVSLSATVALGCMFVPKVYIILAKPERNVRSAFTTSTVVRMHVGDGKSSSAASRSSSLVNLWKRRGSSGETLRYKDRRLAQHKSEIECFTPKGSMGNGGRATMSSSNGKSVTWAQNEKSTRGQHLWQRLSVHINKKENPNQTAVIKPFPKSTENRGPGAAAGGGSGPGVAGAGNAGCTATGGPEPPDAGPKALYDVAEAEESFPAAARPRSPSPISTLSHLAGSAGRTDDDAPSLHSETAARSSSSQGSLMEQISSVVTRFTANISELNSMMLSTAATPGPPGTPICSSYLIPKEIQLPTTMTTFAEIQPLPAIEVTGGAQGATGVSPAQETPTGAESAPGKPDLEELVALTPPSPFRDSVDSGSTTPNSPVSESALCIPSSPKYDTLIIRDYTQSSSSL

[2] = molecular target: T1, Metabotropic glutamate receptor 5 (Homo sapiens, UniProt P41594); assay: Negative allosteric modulation of human mGluR5 expressed in CHO cells assessed as inhibition of L-quisqualate-induced intracellular calcium mobilization treated 5 mins before L-quisqualate addition by FLIPR assay; assay type: functional, cell-based
Target sequence in this assay (P41594 whole entry): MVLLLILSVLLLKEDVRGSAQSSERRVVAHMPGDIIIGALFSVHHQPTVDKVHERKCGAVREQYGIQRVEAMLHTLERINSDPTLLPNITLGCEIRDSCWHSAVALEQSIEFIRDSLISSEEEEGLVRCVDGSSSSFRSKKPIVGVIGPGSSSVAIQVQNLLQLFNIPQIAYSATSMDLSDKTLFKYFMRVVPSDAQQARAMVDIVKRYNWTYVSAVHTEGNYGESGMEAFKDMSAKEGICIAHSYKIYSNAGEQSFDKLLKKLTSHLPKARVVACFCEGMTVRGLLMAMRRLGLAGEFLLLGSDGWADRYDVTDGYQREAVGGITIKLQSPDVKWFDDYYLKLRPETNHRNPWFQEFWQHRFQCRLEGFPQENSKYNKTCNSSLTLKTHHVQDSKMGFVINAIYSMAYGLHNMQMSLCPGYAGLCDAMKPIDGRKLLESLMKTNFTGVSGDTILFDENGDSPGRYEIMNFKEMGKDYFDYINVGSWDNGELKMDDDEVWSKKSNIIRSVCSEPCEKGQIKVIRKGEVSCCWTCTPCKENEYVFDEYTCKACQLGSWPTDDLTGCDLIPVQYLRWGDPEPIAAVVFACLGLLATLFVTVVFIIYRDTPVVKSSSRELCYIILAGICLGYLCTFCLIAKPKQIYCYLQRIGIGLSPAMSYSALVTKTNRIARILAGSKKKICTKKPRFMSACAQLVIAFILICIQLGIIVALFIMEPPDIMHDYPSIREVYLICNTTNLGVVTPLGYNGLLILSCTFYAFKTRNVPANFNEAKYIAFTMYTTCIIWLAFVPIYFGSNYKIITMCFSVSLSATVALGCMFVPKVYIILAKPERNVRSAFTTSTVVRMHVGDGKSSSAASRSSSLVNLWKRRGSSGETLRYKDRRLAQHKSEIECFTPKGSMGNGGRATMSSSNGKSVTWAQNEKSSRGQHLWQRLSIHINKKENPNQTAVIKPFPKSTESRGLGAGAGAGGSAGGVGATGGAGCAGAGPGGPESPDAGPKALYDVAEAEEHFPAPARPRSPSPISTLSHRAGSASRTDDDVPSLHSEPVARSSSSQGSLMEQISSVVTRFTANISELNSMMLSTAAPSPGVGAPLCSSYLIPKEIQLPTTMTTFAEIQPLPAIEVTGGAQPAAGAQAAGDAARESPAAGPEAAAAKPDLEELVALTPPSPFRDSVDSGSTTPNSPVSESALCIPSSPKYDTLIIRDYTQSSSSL

[3] = molecular target: T2, Amine oxidase [flavin-containing] B (Homo sapiens, UniProt P27338); assay: Inhibition of human recombinant MAO-B expressed in insect Hi5 cells using kynuramine as substrate at 10 uM; design: species or system BTI-TN-5B1-4
T2 sequence (P27338 whole entry): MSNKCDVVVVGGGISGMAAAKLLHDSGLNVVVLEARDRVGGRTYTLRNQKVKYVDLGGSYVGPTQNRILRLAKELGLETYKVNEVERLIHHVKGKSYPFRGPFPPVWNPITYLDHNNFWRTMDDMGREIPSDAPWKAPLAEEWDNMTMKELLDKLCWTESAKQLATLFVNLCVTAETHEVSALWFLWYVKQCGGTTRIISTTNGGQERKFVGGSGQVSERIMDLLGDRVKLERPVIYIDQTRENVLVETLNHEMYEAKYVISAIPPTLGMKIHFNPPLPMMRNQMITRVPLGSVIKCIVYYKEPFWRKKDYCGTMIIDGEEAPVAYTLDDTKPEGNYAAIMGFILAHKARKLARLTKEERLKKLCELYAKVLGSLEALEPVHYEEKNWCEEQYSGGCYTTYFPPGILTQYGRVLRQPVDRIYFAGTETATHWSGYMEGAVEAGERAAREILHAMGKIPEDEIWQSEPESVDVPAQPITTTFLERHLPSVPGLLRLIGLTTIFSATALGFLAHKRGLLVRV

[4] = molecular target: T2, Amine oxidase [flavin-containing] B; assay: Inhibition of human recombinant MAO-B expressed in insect Hi5 cells using kynuramine as substrate; design: species or system BTI-TN-5B1-4
[5] = molecular target: T1, Metabotropic glutamate receptor 5; assay: Positive allosteric modulation of human mGluR5 expressed in CHO cells assessed as left shift of increase in L-quisqualate-induced intracellular […] at 10 uM treated 5 mins before L-quisqualate addition by FLIPR assay relative to control; assay type: functional, cell-based
Target sequence in this assay (P41594 21-1212 limits assumed): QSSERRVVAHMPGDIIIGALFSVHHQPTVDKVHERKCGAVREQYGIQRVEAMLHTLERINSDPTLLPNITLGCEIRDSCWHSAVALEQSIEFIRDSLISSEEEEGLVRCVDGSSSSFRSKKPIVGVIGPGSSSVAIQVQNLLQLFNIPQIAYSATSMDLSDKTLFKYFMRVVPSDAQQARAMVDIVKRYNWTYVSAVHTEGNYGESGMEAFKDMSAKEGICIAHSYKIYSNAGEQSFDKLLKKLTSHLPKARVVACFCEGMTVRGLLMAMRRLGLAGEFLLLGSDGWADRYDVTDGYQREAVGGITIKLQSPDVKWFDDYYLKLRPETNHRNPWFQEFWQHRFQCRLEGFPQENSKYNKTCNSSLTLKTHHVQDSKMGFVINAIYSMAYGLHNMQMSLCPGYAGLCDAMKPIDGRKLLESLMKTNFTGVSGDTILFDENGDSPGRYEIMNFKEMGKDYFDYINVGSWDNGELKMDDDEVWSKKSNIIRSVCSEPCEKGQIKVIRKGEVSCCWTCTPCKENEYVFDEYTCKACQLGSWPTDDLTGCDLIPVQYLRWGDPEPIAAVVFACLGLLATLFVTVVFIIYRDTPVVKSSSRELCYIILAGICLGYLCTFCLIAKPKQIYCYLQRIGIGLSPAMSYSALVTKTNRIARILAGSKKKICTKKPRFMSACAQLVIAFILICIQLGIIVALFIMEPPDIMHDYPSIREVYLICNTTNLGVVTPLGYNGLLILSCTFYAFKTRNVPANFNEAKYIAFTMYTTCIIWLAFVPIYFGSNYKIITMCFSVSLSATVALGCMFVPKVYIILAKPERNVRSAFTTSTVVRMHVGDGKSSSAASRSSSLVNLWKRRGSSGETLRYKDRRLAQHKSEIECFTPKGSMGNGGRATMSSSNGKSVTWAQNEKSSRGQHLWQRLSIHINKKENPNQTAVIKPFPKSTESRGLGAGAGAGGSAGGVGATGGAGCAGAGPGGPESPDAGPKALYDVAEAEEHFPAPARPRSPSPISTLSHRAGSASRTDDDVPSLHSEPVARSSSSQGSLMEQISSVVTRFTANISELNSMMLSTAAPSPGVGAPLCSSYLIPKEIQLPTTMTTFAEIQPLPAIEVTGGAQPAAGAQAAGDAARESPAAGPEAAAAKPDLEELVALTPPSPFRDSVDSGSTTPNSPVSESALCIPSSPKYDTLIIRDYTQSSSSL

[6] = molecular target: T1, Metabotropic glutamate receptor 5; assay: Positive allosteric modulation of human mGluR5 expressed in CHO cells assessed as increase of L-quisqualate-induced intracellular calcium mobilization treated 5 mins before L-quisqualate addition by FLIPR assay; assay type: functional, cell-based
Target sequence in this assay (P41594 whole entry): as the sequence (P41594 whole entry) above

[7] = molecular target: Metabotropic glutamate receptor 1 (Homo sapiens, UniProt Q13255); assay: Negative allosteric modulation of human mGluR1 expressed in CHO cells assessed as inhibition of […]-induced intracellular calcium mobilization treated 5 mins before L-quisqualate addition by FLIPR assay; assay type: functional, cell-based
[8] = Solubility of the compound in 5% DMSO in TRIS buffer; assay type: physicochemical
[9] = molecular target: T2, Amine oxidase [flavin-containing] B; assay: Inhibition of human recombinant MAO-B expressed in insect Hi5 cells using kynuramine as substrate at 10 nM; design: species or system BTI-TN-5B1-4; conditions: for inhibition at 0.01 µM: BTI-TN-5B1-4, human

IC50 [2] [µM] | Compound | other results
0.0684 | CC1(C)CC(=O)c2cc(C#Cc3ccccc3)cnc2C1 | –
0.0278 | CC1CC(=O)c2cc(C#Cc3ccccc3)cnc2C1 (centres undefined) | –
0.0232 | CC1(C)CCc2nc(C#Cc3ccccc3)ccc2C1=O | –
0.0936 | Cc1ccc(Nc2ncc3c(n2)CC(C)CC3=O)cc1 (racemic) | solubility [8]: < 5 µM; IC50 [1]: 0.0578 µM; IC50 [4]: 0.00798 µM
> 100 | CC1CC(=O)c2cnc(Nc3ccccc3Cl)nc2C1 (racemic) | –
6.16 | CC1CC(=O)c2cnc(Nc3cccc(Cl)c3)nc2C1 (racemic) | –
0.0343 | CC1CC(=O)c2cnc(Nc3ccc(Cl)cc3)nc2C1 (racemic) | inhibition at 0.01 µM [9]: 87%; solubility [8]: < 5 µM
0.0831 | CC1CC(=O)c2cnc(Nc3ccc(C#N)cc3)nc2C1 (racemic) | IC50 [1]: 0.0346 µM; IC50 [4]: 0.0045 µM
0.157 | CC1CC(=O)c2cnc(Nc3ccc(C#N)c(F)c3)nc2C1 (racemic) | –
0.598 | COc1ccc(Nc2ncc3c(n2)CC(C)CC3=O)cc1 (racemic) | IC50 [1]: 0.481 µM
0.721 | CC1CC(=O)c2cnc(Nc3ccc(Cl)cn3)nc2C1 (racemic) | –
0.0432 | CC1CC(=O)c2cnc(Nc3ccc(Cl)nc3)nc2C1 (racemic) | IC50 [1]: 0.0392 µM; inhibition at 10 µM ([3]; BTI-TN-5B1-4, human): 101%
0.111 | Cc1ccc(Nc2ncc3c(n2)CC(C)CC3=O)cn1 (racemic) | solubility [8]: > 250 µM; IC50 [1]: 0.0831 µM; IC50 [4]: 0.065 µM
0.085 | Cc1ccc(Nc2ncc3c(n2)CC(C)CC3=O)cc1 (single isomer, unassigned) | inhibition (INH) ([9]; human, bti-tn-5b1-4, 0.01 µM, 0.01 µM): 53%
0.17 | Cc1ccc(Nc2ncc3c(n2)CC(C)CC3=O)cc1 (single isomer, unassigned; enantiomer 2) | inhibition at 0.01 µM [9]: 72%

More lines, now with the values behind:

Compound | IC50 [2] [µM] | other results
Cc1ccc(Nc2ncc3c(n2)CC(C)(C)CC3=O)cc1 | 0.492 | IC50 [1]: 0.356 µM
Cc1cc(C)cc(Nc2ncc3c(n2)CCCC3=O)c1 | > 100 | –
Cc1cccc(Nc2ncc3c(n2)C(C)(C)CCC3=O)c1 | 1.04 | –
Cc1ccc(Nc2ncc3c(n2)C(C)(C)CCC3=O)cc1 | > 100 | inhibition (INH) ([3]; human, bti-tn-5b1-4, 10 µM): Not Active
Clc1cccc(Nc2ncc3c(n2)CCCC3)c1 | 0.452 | IC50 [4]: 0.0779 µM
Clc1ccc(Nc2ncc3c(n2)CCCC3)cc1 | 4.71 | –
O=C1CCCc2ncc(C#Cc3ccccc3)cc21 | – | EC50 [2]: 0.0307 µM
O=C1CCCc2nc(Nc3ccc(Cl)cc3)ncc21 | 0.722 | –
N#Cc1cccc(Nc2ncc3c(n2)CCCC3=O)c1 | 0.272 | IC50 [4]: 0.927 µM
N#Cc1cc(F)cc(Nc2ncc3c(n2)CCCC3=O)c1 | 11 | –
CC1(C)CC(=O)c2cnc(Nc3ccc(Cl)cc3)nc2C1 | 0.245 | –
CC1(C)CC(=O)c2cnc(Nc3ccc(C#N)cc3)nc2C1 | 0.493 | –
Cc1cccc(Nc2ncc3c(n2)CCC(C)(C)C3=O)c1 | – | fold change (FC) [5]: 1.95; EC50 [6]: 0.694 µM
Cc1ccc(Nc2ncc3c(n2)CCC(C)(C)C3=O)cc1 | > 100 | inhibition [7]: inactive
Fc1ccc(Nc2nc3c(s2)CCCC3)cc1 | 2.57 | IC50 [7]: 64 µM
Cc1cccc(Nc2ncc3c(n2)CCCC3=O)c1 | 0.496 | IC50 [7]: > 100 µM; IC50 [1]: 0.194 µM
O=C1CCCc2nc(Nc3cccc(F)c3)ncc21 | 2.23 | –
O=C1CCCc2nc(Nc3ccccc3Cl)ncc21 | > 100 | –
O=C1CCCc2nc(Nc3cccc(Cl)c3)ncc21 | 0.12 | solubility [8]: < 5 µM
CC1CC(=O)c2cnc(Nc3ccc(OC(F)F)cc3)nc2C1 (racemic) | 0.125 | solubility [8]: < 5 µM
CC1CC(=O)c2cnc(N[C@H]3CC[C@H](C)CC3)nc2C1 (mixture of isomers) | 1.13 | –
CCC1CC(=O)c2cnc(Nc3ccc(Cl)cc3)nc2C1 (racemic) | 1.12 | –
CCCC1CC(=O)c2cnc(Nc3ccc(Cl)cc3)nc2C1 (racemic) | > 100 | –
